Series [1] is described as follows: Aqueous solubility of the compound in pH 7.4. The class given is physicochemical. Particulars: aqueous medium.
In series [2] the target is Leucine-rich repeat serine/threonine-protein kinase 2 (Homo sapiens, UniProt Q5S007, G2019S). As to the kind of experiment: Inhibition LRRK2 G2019S mutant (unknown origin) Ser935 phosphorylation in HEK293 cells. The class given is cell-based.
Series [3] deals with Serine/threonine-protein kinase B-raf (Homo sapiens) (UniProt P15056). In words: Inhibition of BRAF labeling at conserved Lys2 (DLKSNNIFLHEDLTVK) in human PBMC at 1 uM.
Series [4] concerns the target T1, Serine/threonine-protein kinase LATS1 (Homo sapiens) (UniProt O95835).
T1 sequence (whole entry): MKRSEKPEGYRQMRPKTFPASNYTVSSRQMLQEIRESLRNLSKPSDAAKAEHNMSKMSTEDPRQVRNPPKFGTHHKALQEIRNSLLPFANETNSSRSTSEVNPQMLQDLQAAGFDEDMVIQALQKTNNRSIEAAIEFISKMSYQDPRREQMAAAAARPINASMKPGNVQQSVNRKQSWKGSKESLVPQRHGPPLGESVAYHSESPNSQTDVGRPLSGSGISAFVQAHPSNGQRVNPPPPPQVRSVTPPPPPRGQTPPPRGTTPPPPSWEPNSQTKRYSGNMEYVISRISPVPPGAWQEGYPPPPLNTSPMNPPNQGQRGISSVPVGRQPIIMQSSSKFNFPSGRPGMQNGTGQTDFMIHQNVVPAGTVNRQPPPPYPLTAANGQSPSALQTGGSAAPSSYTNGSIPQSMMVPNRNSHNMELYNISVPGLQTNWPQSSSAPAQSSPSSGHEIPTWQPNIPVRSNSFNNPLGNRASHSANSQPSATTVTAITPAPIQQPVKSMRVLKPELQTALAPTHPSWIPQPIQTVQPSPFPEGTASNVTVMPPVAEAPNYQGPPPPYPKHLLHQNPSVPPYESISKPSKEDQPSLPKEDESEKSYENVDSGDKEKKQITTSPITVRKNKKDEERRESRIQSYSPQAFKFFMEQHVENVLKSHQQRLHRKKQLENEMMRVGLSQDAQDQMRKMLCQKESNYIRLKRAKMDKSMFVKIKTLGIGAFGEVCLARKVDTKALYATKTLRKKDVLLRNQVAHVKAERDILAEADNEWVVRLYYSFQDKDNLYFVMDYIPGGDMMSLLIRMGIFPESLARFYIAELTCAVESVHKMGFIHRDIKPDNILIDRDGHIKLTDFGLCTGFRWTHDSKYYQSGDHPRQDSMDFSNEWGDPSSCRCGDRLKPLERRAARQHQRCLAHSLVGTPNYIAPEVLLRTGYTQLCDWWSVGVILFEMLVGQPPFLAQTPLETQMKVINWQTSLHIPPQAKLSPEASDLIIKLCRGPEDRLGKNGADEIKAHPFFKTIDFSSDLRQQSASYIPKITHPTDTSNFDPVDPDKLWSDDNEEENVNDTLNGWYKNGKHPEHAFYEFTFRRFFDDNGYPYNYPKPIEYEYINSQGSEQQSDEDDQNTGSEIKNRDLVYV
As to the kind of experiment: Inhibition of LATS1 conserved Lys1 (ALYATKTLR) in human PBMC at 1 uM.

The target of series [5] is Mitogen-activated protein kinase 13 (Homo sapiens) (UniProt O15264). As to the kind of experiment: Inhibition of p38d conserved Lys2 (DLKPGNLAVNEDCELK) in human PBMC at 1 uM.
Chain of Mitogen-activated protein kinase 13 (Homo sapiens) (O15264 whole entry): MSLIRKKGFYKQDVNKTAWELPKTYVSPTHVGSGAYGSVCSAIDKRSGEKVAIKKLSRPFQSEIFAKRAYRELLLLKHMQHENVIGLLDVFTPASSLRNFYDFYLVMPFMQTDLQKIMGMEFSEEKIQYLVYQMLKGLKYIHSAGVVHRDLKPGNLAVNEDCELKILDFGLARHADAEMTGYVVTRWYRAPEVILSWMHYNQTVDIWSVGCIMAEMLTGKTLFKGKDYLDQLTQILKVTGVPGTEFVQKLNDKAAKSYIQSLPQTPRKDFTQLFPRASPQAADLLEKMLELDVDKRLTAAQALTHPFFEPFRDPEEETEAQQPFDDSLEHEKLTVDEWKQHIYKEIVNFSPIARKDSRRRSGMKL
Series [6] deals with 1-phosphatidylinositol 3-phosphate 5-kinase (Homo sapiens) (UniProt Q9Y2I7). As to the kind of experiment: Inhibition of PIP5K3 ATP binding site (GGKSGAAFYATEDDRFILK) in human PBMC at 1 uM.
Series [7] has as its target Protein kinase C beta type (Homo sapiens) (UniProt P05771). In words: Inhibition of PKCb conserved Lys2 (DLKLDNVMLDSEGHIK) in human PBMC at 1 uM.
Series [8] deals with Serine/threonine-protein kinase WNK1 (Homo sapiens) (UniProt Q9H4A3). As to the kind of experiment: Inhibition of Wnk1 ATP binding site (GSFKTVYK) in human PBMC at 1 uM.
Series [9] concerns the target Serine/threonine-protein kinase WNK2 (Homo sapiens) (UniProt Q9Y3S1). As to the kind of experiment: Inhibition of Wnk2 ATP binding site (GSFKTVYK) in human PBMC at 1 uM.
Series [10] addresses 5'-AMP-activated protein kinase catalytic subunit alpha-1 (Homo sapiens) (UniProt Q13131). As to the kind of experiment: Inhibition of AMPKa1 labeling at conserved Lys1 (VAVKILNR) in human PBMC at 0.1 uM.
Series [11] has as its target Cyclin-dependent kinase 1 (Homo sapiens) (UniProt P06493). As to the kind of experiment: Inhibition of CDC2 labeling at conserved Lys2 (DLKPQNLLIDDKGTIK) in human PBMC at 0.1 uM.
Series [12] has as its target Tyrosine-protein kinase Fyn (Homo sapiens) (UniProt P06241). In words: Inhibition of FYN activation Loop (QGAKFPIKWTAPEAALYGR) in human PBMC at 0.1 uM.
Series [13] deals with T1, Serine/threonine-protein kinase LATS1 (Homo sapiens). In words: Inhibition of LATS1 conserved Lys2 (DIKPDNILIDR) in human PBMC at 0.1 uM.
The target in series [14] is Serine/threonine-protein kinase Nek7 (Homo sapiens) (UniProt Q8TDX7). As to the kind of experiment: Inhibition of NEK7 conserved Lys1 (AACLLDGVPVALKK) in human PBMC at 0.1 uM.
Chain of Serine/threonine-protein kinase Nek7 (Homo sapiens) (Q8TDX7 whole entry, looked up): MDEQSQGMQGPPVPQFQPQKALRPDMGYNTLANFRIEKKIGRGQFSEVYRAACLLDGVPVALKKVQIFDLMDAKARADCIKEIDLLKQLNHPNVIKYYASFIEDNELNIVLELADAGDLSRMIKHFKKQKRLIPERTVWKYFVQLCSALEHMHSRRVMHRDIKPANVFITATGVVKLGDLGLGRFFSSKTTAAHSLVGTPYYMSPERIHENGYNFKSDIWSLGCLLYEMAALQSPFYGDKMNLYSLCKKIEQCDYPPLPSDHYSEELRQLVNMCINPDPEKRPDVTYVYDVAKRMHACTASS
The target of series [15] is Serine/threonine-protein kinase Nek9 (Homo sapiens) (UniProt Q8TD19). As to the kind of experiment: Inhibition of NEK9 conserved Lys2 (DIKTLNIFLTK) in human PBMC at 0.1 uM.
Chain of Serine/threonine-protein kinase Nek9 (Homo sapiens) (Q8TD19 whole entry, the tested form may be a part): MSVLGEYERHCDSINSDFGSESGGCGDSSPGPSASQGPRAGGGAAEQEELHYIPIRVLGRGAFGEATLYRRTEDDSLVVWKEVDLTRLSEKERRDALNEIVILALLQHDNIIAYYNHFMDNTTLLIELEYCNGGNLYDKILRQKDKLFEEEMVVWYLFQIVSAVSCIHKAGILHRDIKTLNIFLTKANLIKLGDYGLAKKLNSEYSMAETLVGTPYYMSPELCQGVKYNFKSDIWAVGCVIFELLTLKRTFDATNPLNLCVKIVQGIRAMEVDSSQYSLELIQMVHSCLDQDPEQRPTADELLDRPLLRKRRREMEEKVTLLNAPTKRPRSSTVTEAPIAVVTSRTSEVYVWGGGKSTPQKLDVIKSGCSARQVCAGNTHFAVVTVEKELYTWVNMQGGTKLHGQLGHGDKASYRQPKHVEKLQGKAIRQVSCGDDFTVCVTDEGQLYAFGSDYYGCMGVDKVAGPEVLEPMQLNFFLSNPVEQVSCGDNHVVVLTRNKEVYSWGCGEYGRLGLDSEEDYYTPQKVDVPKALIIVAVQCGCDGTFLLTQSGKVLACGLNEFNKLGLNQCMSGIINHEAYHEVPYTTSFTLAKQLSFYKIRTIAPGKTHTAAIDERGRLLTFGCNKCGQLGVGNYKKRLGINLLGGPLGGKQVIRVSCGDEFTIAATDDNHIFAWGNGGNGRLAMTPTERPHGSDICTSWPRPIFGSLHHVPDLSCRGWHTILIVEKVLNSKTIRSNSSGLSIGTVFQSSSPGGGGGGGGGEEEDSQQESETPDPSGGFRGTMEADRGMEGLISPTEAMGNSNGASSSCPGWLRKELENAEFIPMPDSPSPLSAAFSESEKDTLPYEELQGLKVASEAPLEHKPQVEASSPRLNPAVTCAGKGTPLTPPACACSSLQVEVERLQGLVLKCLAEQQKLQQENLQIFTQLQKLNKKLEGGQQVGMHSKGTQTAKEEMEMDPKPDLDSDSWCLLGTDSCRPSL
The target in series [16] is Ribosomal protein S6 kinase alpha-1 (Homo sapiens) (UniProt Q15418). As to the kind of experiment: Inhibition of RSK1 domain2 conserved Lys2 (DLKPSNILYVDESGNPECLR) in human PBMC at 0.1 uM.
For series [17], the target named is Myosin light chain kinase, smooth muscle (Homo sapiens) (UniProt Q15746). In words: Inhibition of smMLCK conserved Lys2 (QGIVHLDLKPENIMCVNK) in human PBMC at 0.1 uM.
Chain of Myosin light chain kinase, smooth muscle (Homo sapiens) (Q15746 whole entry): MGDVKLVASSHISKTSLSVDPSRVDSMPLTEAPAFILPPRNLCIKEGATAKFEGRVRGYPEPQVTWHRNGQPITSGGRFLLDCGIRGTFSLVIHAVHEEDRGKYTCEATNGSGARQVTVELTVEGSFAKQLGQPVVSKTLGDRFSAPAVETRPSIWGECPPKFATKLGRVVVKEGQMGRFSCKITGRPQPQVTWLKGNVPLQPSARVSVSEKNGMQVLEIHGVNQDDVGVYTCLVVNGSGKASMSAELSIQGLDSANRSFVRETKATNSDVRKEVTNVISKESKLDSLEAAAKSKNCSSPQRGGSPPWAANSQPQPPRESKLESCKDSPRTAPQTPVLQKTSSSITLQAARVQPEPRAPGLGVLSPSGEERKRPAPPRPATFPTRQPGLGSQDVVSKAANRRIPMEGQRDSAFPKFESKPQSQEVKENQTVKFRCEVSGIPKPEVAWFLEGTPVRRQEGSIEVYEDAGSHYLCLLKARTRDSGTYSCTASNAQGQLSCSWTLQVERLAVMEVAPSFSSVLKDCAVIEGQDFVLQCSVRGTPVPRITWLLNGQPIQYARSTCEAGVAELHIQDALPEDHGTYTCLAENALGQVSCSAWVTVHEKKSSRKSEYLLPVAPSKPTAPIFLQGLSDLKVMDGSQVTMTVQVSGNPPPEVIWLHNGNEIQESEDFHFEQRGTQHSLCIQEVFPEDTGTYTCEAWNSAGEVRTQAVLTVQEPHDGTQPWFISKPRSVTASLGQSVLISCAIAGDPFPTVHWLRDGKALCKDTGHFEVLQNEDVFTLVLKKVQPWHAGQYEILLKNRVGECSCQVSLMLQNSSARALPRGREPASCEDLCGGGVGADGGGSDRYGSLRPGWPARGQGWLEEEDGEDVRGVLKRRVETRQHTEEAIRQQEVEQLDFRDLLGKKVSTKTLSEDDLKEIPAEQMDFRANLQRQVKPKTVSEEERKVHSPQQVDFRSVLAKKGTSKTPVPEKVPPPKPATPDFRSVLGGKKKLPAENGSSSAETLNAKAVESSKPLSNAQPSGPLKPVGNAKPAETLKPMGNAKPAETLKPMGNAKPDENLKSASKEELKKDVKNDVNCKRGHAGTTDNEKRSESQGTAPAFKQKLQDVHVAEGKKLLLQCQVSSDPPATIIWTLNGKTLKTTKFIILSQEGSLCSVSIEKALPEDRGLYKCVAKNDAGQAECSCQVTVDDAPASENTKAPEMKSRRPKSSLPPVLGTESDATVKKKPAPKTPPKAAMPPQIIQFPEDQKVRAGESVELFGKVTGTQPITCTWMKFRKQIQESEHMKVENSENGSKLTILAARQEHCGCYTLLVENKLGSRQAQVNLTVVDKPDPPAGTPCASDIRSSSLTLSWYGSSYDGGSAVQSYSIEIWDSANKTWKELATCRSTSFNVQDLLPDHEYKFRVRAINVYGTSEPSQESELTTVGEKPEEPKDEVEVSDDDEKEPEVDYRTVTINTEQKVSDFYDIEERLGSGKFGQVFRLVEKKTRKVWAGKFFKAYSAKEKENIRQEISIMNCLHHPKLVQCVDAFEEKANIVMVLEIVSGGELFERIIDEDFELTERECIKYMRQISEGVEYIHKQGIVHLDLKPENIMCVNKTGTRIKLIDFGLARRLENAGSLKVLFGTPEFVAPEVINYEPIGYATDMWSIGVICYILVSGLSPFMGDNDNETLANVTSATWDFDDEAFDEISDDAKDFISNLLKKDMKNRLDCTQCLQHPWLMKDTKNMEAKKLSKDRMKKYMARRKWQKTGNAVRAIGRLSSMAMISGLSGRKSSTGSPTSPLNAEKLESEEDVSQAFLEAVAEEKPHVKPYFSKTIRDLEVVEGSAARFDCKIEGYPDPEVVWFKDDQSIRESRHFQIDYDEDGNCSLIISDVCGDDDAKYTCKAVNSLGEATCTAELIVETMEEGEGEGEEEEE
Series [18] deals with T2, STE20-related kinase adapter protein alpha (Homo sapiens) (UniProt Q7RTN6).
T2 sequence (whole entry): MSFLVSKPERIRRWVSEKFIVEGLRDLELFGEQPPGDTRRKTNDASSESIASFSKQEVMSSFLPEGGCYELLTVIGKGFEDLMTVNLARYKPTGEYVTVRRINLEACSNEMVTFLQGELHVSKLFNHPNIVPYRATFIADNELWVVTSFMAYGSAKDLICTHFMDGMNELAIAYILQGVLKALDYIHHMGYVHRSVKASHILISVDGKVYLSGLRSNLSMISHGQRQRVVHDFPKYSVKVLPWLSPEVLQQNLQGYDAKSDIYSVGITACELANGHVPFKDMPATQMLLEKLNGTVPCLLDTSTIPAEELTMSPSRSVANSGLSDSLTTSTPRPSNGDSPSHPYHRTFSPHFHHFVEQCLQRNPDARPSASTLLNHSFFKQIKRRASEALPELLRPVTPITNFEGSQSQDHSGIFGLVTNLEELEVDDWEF
As to the kind of experiment: Inhibition of STLK5 activation loop (YSVKVLPWLSPEVLQQNLQGYDAK) in human PBMC at 0.1 uM.

≈ marks a conversion by molar mass, not a printed value.

Chain of Protein kinase C beta type (Homo sapiens) (P05771 2-671 limits assumed): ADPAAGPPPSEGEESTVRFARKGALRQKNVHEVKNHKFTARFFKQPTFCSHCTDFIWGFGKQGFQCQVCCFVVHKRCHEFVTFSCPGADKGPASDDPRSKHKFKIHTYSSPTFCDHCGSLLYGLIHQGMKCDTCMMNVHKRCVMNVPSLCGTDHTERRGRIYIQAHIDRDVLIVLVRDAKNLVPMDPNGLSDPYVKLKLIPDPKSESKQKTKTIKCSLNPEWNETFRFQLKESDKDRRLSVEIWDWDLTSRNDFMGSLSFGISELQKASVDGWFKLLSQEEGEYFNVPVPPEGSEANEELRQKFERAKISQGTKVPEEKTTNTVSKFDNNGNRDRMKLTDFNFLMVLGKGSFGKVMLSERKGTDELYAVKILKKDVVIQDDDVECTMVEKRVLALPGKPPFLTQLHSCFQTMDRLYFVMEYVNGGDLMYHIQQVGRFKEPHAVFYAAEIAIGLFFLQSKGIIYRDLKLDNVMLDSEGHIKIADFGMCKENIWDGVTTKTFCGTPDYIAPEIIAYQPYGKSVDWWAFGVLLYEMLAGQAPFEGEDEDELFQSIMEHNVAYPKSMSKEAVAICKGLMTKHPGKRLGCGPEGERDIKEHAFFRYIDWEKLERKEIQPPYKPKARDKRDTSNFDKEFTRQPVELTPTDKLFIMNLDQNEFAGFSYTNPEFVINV
Chain of Tyrosine-protein kinase Fyn (Homo sapiens) (P06241 2-537 limits assumed): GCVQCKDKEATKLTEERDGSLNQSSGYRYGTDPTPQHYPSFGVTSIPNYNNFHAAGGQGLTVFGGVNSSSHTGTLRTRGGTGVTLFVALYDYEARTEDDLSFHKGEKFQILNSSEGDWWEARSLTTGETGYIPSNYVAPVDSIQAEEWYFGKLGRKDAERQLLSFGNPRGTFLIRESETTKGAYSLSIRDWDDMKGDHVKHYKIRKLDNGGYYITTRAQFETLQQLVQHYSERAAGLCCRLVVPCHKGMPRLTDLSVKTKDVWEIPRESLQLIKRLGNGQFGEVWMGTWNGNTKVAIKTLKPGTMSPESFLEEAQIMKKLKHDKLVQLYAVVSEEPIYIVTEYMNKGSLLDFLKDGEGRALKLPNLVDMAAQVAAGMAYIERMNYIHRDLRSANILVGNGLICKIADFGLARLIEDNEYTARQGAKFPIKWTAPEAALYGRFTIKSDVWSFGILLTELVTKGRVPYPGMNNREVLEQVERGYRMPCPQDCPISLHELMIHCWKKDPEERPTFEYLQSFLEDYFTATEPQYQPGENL
Chain of Cyclin-dependent kinase 1 (Homo sapiens) (P06493 whole entry, looked up): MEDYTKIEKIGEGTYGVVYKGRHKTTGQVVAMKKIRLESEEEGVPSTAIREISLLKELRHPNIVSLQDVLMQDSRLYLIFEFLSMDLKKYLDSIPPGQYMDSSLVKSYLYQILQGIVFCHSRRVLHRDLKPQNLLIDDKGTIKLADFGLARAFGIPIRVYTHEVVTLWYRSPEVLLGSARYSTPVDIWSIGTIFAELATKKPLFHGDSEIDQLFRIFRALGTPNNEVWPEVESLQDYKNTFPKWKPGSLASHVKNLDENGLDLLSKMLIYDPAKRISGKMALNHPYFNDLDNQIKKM

What is called solubility is the concentration that dissolves in the medium under given conditions. The IC50 is the concentration that inhibits the measured activity by half. By inhibition is commonly meant the change of the read-out against control, counted positive when it falls. Consider `CC(C)n1cc(-c2cc(-c3ccc(CN4CCOCC4)cc3)cnc2N)nn1`, for which the solubility in [1] is 36 µg/mL (≈ 95.1 µM). This molecule also returned an IC50 in series [2] of 920 nM. Also, the inhibition was 11.4% in series [3]; 30.1% in series [4]; 14% in [5]; -9.2% in [6]; -7.4% in series [7]; 14.2% in series [8]. Also, the inhibition in series [9] was 14.2%; in [10] it was 7.7%; in series [11], 14.4%; in series [12] it was -4.4%; in [13] it was 34.9%; in series [14], 7.6%. The inhibition is 26.5% in series [15], 8.3% in [16], 11.3% in series [17] and -9.8% in [18].
